US9676712B2, “Lactam compounds as EP4 receptor-selective agonists for use in the treatment of EP4-mediated diseases and conditions” (Cayman Chemical Company, Inc., priority 2013, dated 2017)

How the values were obtained:
EP4 receptor [1] = target: T1, EP4 receptor (Rattus norvegicus (Rat), UniProt P43114); assay: STEP plate cell functional assay, SEAP activity, EP4; assay type: cell-based; details: SEAP reporter, 6-8 hours stimulation
Excerpt: (§1) Functional Cellular Assays (STEP Plate Format)
(§2) Procedure of SEAP Activity Assay for EP2/EP4 Agonist
(§3) 3. […] In addition each concentration had triplicates.
(§4) 4. […] Cover the plate with the lid.

EP4 receptor [2] = target: T1, EP4 receptor; assay: STEP plate cell functional assay, cAMP level (ELISA), EP4; assay type: cell-based; details: 30 minutes, 500 μM IBMX
Excerpt: as §1
Procedure of cAMP Assay for EP2/EP4 Agonist
as §3
6. Aspirate the supernatant.

EP2 receptor = EP2 receptor (Rattus norvegicus (Rat), UniProt Q62928); assay: STEP plate cell functional assay, SEAP activity, EP2; assay type: cell-based; details: SEAP reporter, 6-8 hours stimulation
Excerpt: as §1, §2, §3, §4

[3] = target: Human Prostanoid EP4 Receptor (Homo sapiens (Human), UniProt P35408); assay: Radioligand binding assay, agonist site of the human prostanoid EP4 receptor in transfected HEK-293 cells ([3H]PGE2)
Protocol: Radioligand Binding Assay for the Evaluation of the Affinity of Compounds for the Agonist Site of the Human Prostanoid EP4 Receptor in Transfected HEK-293 Cells
Following incubation, the samples are filtered rapidly under vacuum through glass fiber filters (GF/B, Packard) presoaked with 0.3% PEI and rinsed several times with ice-cold 50 mM Tris-HCl using a 96-sample cell harvester (Unifilter, Packard). The filters are dried then counted for radioactivity in a scintillation counter (Topcount, Packard) using a scintillation cocktail (Microscint 0, Packard).

EP2 receptor, sequence (Q62928 whole entry): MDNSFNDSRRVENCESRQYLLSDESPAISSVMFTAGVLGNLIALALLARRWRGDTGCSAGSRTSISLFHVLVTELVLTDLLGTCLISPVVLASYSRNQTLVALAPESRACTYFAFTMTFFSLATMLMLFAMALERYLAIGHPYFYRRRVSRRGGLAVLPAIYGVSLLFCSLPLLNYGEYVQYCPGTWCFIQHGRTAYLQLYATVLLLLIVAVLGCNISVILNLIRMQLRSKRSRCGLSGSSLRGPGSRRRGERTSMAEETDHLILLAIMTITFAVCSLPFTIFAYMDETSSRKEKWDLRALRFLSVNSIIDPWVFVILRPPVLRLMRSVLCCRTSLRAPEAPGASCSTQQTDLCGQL
T1 sequence (P43114 whole entry): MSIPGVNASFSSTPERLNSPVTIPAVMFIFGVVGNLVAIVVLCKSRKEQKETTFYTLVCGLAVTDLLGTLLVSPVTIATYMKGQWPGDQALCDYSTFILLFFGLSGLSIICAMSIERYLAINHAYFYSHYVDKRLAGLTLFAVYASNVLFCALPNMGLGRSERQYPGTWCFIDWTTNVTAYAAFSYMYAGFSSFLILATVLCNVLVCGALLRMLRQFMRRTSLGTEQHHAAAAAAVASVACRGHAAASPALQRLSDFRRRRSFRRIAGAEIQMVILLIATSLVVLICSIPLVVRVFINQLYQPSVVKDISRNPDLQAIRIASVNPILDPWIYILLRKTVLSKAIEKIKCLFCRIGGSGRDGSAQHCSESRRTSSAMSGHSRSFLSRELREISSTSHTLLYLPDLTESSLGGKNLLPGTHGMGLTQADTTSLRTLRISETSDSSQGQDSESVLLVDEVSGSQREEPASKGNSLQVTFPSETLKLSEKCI
Human Prostanoid EP4 Receptor, sequence (P35408 whole entry): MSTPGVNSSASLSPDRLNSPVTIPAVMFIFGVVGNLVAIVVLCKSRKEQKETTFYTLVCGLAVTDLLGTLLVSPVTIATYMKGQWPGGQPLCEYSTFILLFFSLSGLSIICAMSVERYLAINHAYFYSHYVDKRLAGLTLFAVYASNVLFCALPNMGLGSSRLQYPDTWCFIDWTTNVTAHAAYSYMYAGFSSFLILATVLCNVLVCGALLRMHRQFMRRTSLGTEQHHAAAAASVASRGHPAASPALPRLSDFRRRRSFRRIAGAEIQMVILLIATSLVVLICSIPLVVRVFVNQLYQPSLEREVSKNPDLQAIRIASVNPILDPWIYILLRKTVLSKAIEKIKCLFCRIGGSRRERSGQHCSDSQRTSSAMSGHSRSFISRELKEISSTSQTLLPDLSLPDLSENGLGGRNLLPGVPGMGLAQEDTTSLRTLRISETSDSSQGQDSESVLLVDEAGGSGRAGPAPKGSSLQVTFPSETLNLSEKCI

Compound	EC50 (EP4 receptor [1]) [nM]	EC50 (EP4 receptor [2]) [nM]	EC50 (EP2 receptor) [nM]	IC50 ([3]; read-out: hEP4 receptor binding IC50) [nM]	Ki ([3]; read-out: hEP4 receptor binding Ki) [nM]
CC(CCCc1ccccc1)[C@H](O)/C=C/[C@H]1CCC(=O)N1CC#Cc1ccc(C(=O)O)s1 (mixture of isomers) [Example 3C, 5-(3-((2R)-2-((3S,E)-3-hydroxy-4-methyl-7-phenylhept-1-en-1-yl)-5-oxopyrrolidin-1-yl)prop-1-yn-1-yl)thiophene-2-carboxylic acid]	0.019		> 10000		
CC(CCCc1ccccc1)[C@@H](O)/C=C/[C@H]1CCC(=O)N1CC#Cc1ccc(C(=O)O)s1 (mixture of isomers) [Example 3D, 5-(3-((2R)-2-((3R,E)-3-hydroxy-4-methyl-7-phenylhept-1-en-1-yl)-5-oxopyrrolidin-1-yl)prop-1-yn-1-yl)thiophene-2-carboxylic acid]	31.5		> 10000		
CC(CCCc1ccccc1)[C@@H](O)/C=C/[C@H]1CCC(=O)N1CCCc1ccc(C(=O)O)s1 (mixture of isomers) [Example 4D, 5-(3-((2R)-2-((3R,E)-3-hydroxy-4-methyl-7-phenylhept-1-en-1-yl)-5-oxopyrrolidin-1-yl)propyl)thiophene-2-carboxylic acid]			> 10000		

Other lines, results leading:

EC50 (EP4 receptor [1]) [nM]	EC50 (EP4 receptor [2]) [nM]	EC50 (EP2 receptor) [nM]	IC50 ([3]; read-out: hEP4 receptor binding IC50) [nM]	Ki ([3]; read-out: hEP4 receptor binding Ki) [nM]	Compound
0.001 ± 0.001	0.007	> 1000			CC(CCCc1ccccc1)[C@H](O)/C=C/[C@H]1CCC(=O)N1CCCCCCC(=O)O (mixture of isomers) [Example 2C, 7-((2R)-2-((3S,E)-3-hydroxy-4-methyl-7-phenylhept-1-en-1-yl)-5-oxopyrrolidin-1-yl)heptanoic acid]
0.003		2280			CC(CCCc1ccccc1)[C@H](O)/C=C/[C@H]1CCC(=O)N1CCCc1ccc(C(=O)O)s1 (mixture of isomers) [Example 4C, 5-(3-((2R)-2-((3S,E)-3-hydroxy-4-methyl-7-phenylhept-1-en-1-yl)-5-oxopyrrolidin-1-yl)propyl)thiophene-2-carboxylic acid]
0.014 ± 0.02	1.37	> 1000	10	3.8	O=C(O)CCCCCCN1C(=O)CC[C@@H]1/C=C/[C@@H](O)CCCCc1ccccc1 [Example 1C, 7-((R)-2-((S,E)-3-hydroxy-7-phenylhept-1-en-1-yl)-5-oxopyrrolidin-1-yl)heptanoic acid]
